Experimental data taken from article PMC10669474, “An Exploration of Small Molecules That Bind Human Single-Stranded DNA Binding Protein 1” (Biology, 2023).

Experiments:
E. coli SSB = tested on: E. coli SSB; parameters: method as in PMID 27609050; details: ssDNA interaction; cited from earlier work
hSSB1 [1] = target: T1, hSSB1 (Homo sapiens, UniProt Q9BQ15); experiment: Electrophoretic mobility shift assay (EMSA), competition with Cy5-labelled ssDNA probe; type: binding; details: tested from 200 to 0.091 μM
T1 construct: 6xHis (N); made in house; host or cells: E. coli BL21 (DE3*)
Procedure: These were performed in 10 μL reactions of 10 mM Tris (pH 7.5), 100 mM NaCl, 0.01% IGEPAL, and 1 mM DTT. Two 5 μL solutions were prepared. The first mix contained hSSB1 with the compound of interest, which were incubated together for 10 min before the addition of the probe molecule, Cy5-labelled In3-PS. The combined solution was incubated for 30 min at 37 °C, before loading dye was added and the samples were loaded into 10% polyacrylamide TBE gels. These gels were run for 1.5 h in a cold room at 80 V before being imaged using a ChemiDoc Imaging System (BioRad, Hercules, CA, USA) and quantified using ImageStudio Lite (Version 5.2) software.
The optimal conditions for the EMSAs were established using a titration matrix of hSSB1 and Cy5-labelled In3-PD concentrations. Concentrations of hSSB1 from 1000 to 0.26 nM and Cy5-labelled In3-PD at 1 nM and 5 nM were tested. The final conditions were established as 15 nM hSSB1 and 1.5 nM Cy5-labelled In3-PS, where the In3-PS is 100% bound. The concentrations of the MS-ML compounds of Merck KGaA, Darmstadt, Germany, were tested from 100 to 0.046 μM, and the concentrations of the novel DAZLN compounds were tested from 200 to 0.091 μM.

hSSB1 [2] = target: T1, hSSB1; experiment: AlphaLISA competition dose-response binding assay; details: for binding to hSSB1 in the AlphaLISA: triplicate; for Kd: as restated in discussion, read-out: affinity to hSSB1 in AlphaLISA binding assays
Procedure: To analyse the binding of compounds to hSSB1 and design a screening assay, we used Perkin Elmer’s AlphaLISA technology. The full assay design is described in the Supplementary Information. The optimal assay conditions were determined with a series of titration matrices to be 0.5 nM hSSB1, 5 nM In3-PD-biotin, 1 nM anti-hSSB1 antibody, 10 μg/mL SA donor beads, and 5 μg/mL protein G acceptor beads in a 16 μL reaction volume. These were combined in a buffer containing 10 mM Tris (pH 7.5), 100 mM NaCl, 0.1% β-mercaptoethanol, and 0.01% IGEPAL. First, an 8 μL mix of hSSB1, anti-hSSB1 antibody, and acceptor beads was prepared, which was added to the compound of interest and incubated for 1 h. Second, an 8 μL aliquot of a solution containing In3-PD-biotin and SA donor beads was added to the well. This was incubated before imaging with an EnSight Multimode Plate Reader (PerkinElmer, Shelton, CT, USA) at 10, 60, and 120 min. The assay was designed in a competition format so that the Cheng–Prusoff equation was met and the IC50 approximated the Kd.
Dose–response curves were obtained for hit compounds and compared with TDRL-551. The same AlphaLISA competition format was used to determine the IC50/Kd of compounds binding to hSSB1. Each compound was dissolved in DMSO before being dispensed into a white 384-well microplate (PerkinElmer, Shelton, CT, USA) using a FlexDrop iQ. […]
1.1.1 Design of the AlphaLISA screening assay
To test whether the compounds bind to hSSB1 and to design an effective screening assay, we used AlphaLISA technology from Perkin Elmer. This technology involves binding a biotin-labelled control DNA oligonucleotide (btn-In3-PD) to a streptavidin-coated donor (SA-donor) bead. hSSB1 is bound to an anti-hSSB1 sheep antibody as described previously, which binds to Protein G-coated acceptor beads. When hSSB1 and btn-In3-PD bind, they bring the two beads close together, and with excitation at 680 nm by laser irradiation, the phthalocyanine in the donor bead excites ambient oxygen to a reactive form of O2. When this is within 200 nm of a europium-containing acceptor bead (during a binding event), the reactive oxygen is transferred to the thioxene derivative, producing light at 615 nm. Without the acceptor bead, oxygen returns to its ground state. This lends the assay to a competition-based format for high- […]
A titration matrix is required to optimise assay conditions to develop an AlphaLISA assay that accurately acquires results and subsequently follows the Cheng-Prusoff equation to report IC50’s as a molecule Kd. […] This is determined by finding the hook point of signal, which indicates the highest signal before the bead is saturated, after which a decrease in signal is observed. […]

U2OS cells = experiment: CellTitre-Glo cytotoxicity assay; type: cell-based, human; details: 48 h incubation, 30—0.0492 μM, CTG
Procedure: The osteosarcoma cell line U2OS was purchased from the American Type Culture Collection (ATCC) and seeded at a density of 500 cells/well in a 384-well plate. They were maintained at 37 °C in a humidified atmosphere containing 5% CO2 in Roswell Park Memorial Institute […] (RPMI) medium (ThermoFisher Scientific, Inc., Brisbane, Australia) supplemented with 10% (v/v) heat-inactivated foetal bovine serum (FBS) (ThermoFisher Scientific). A cytotoxicity assay was conducted to test the impact of the three Merck KGaA, Darmstadt, Germany, compounds (MS-ML24, MS-ML25, MS-ML26) on cell viability. Increasing concentrations of each MS-ML compound were added from […] in serial dilutions of 2.5 (n = 4). The cells were incubated with the compound for 48 h before the CellTitre-Glo (CTG) (Promega) assay was performed as per the manufacturer’s instructions. The plate was read on an EnSight Multimode Plate Reader (PerkinElmer, Shelton, CT, USA).

hSSB1 [3] = target: T1, hSSB1; experiment: AlphaLISA Mini Library screen; type: binding; details: for inhibition at 10 µM: triplicate
Procedure: In parallel to the rational design of small-molecule inhibitors, we acquired access to the Open Innovation Mini Library of small compounds from Merck KGaA, Darmstadt, Germany. This library consisted of 80 compounds at 10 mM in DMSO that had been investigated against other targets, from receptor blockers to protein inhibitors. The goal of screening this library was to test various scaffolds for their affinity to hSSB1.
Using a FlexDrop iQ, 16 nL of each compound was dispensed onto a white low-volume 384-well microplate (PerkinElmer, Shelton, CT, USA) in triplicate at an assay concentration of 10 μM. In3-PS was used as the positive control binding entity at a concentration of 1 μM. The AlphaLISA assay conditions are described in Section 2.4. The hit cut-off used was an average inhibition of 30% across the three repeats. The plate was read using an EnSight Multimode Plate Reader (PerkinElmer, Shelton, CT, USA) at 10, 60, and 120 min.

T1 sequence (Q9BQ15 whole entry): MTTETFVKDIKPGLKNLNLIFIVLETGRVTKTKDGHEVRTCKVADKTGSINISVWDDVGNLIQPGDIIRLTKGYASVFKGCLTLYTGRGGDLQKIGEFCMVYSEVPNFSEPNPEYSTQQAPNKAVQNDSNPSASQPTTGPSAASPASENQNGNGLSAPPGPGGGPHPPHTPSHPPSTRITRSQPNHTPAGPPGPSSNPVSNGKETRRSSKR

O=c1cc2oc3cc(O)c(O)cc3c(-c3ccccc3O)c-2cc1O [9-hydroxyphenylfluoron]
concentration at which 50% bound (E. coli SSB): ~ 25 μM

COc1ccc2cc([C@H]3CC(c4cn(C)c5cc(OC)ccc45)=NN3C(=O)CCCC(=O)NCC(=O)N3CCOCC3)ccc2c1 [DAZLN-56]
binding to hSSB1 / inhibition in the EMSA (hSSB1 [1]): not reflected in the EMSA
binding to hSSB1 in the AlphaLISA (hSSB1 [2]): low level of binding

CCOc1ccc2cc(C3CC(c4ccc(I)cc4)=NN3C(=O)CCCC(=O)O)c(Cl)nc2c1 (stereo not drawn) [TDRL-551]
cytotoxic effect in U2OS cells (U2OS cells): no cytotoxic effect

CCCCCCN(Cc1ccc(C#Cc2ccc(CCCC)cc2)cc1)c1ccc(O)c(C(=O)O)c1 [MS-ML24]
inhibition at 10 µM (hSSB1 [3]): > 45%
Kd (hSSB1 [2]): 143 nM

CCCCCCN(Cc1ccc(C#Cc2ccc(CCCC)cc2)cc1)C(=O)c1ccc(O)c(C(=O)O)c1 [MS-ML25]
inhibition at 10 µM (hSSB1 [3]): > 45%

COc1ccc2cc([C@H]3CC(c4cn(C)c5cc(OC)ccc45)=NN3)ccc2c1 [DAZLN-51]
binding to hSSB1 / inhibition in the EMSA (hSSB1 [1]): no inhibition was observed
binding to hSSB1 in the AlphaLISA (hSSB1 [2]): no binding

O=c1c(O)cccc2cc(O)c(O)c(O)c12 [purpurogallin]
concentration at which 50% bound (E. coli SSB): ~ 25 μM

CCCCCCN(Cc1ccc(C#Cc2ccc(CCCC)cc2)cc1)c1ccc(F)c(C(=O)O)c1 [MS-ML26]
result in initial screen relative to hit threshold (hSSB1 [3]; 10 μM, hit cut-off average inhibition of 30%): slightly lower than the threshold set for the screen
Kd (hSSB1 [2]): 198 nM
